# Test results reported in ChEMBL document CHEMBL2074351, “Characterization of the major metabolites of verapamil as substrates and inhibitors of P-glycoprotein” (J Pharmacol Exp Ther, 2000).
# pIC50: −log10 of the molar value.
# Molecular target: T1, ATP-dependent translocase ABCB1 (Homo sapiens, UniProt P08183)
# Assay: TP_TRANSPORTER: inhibition of Digoxin transepithelial transport (basal to apical) (Digoxin: 5 uM) in Caco-2 cells
# Type: functional, cell-based
# Details: not given
# T1 sequence (P08183 whole entry): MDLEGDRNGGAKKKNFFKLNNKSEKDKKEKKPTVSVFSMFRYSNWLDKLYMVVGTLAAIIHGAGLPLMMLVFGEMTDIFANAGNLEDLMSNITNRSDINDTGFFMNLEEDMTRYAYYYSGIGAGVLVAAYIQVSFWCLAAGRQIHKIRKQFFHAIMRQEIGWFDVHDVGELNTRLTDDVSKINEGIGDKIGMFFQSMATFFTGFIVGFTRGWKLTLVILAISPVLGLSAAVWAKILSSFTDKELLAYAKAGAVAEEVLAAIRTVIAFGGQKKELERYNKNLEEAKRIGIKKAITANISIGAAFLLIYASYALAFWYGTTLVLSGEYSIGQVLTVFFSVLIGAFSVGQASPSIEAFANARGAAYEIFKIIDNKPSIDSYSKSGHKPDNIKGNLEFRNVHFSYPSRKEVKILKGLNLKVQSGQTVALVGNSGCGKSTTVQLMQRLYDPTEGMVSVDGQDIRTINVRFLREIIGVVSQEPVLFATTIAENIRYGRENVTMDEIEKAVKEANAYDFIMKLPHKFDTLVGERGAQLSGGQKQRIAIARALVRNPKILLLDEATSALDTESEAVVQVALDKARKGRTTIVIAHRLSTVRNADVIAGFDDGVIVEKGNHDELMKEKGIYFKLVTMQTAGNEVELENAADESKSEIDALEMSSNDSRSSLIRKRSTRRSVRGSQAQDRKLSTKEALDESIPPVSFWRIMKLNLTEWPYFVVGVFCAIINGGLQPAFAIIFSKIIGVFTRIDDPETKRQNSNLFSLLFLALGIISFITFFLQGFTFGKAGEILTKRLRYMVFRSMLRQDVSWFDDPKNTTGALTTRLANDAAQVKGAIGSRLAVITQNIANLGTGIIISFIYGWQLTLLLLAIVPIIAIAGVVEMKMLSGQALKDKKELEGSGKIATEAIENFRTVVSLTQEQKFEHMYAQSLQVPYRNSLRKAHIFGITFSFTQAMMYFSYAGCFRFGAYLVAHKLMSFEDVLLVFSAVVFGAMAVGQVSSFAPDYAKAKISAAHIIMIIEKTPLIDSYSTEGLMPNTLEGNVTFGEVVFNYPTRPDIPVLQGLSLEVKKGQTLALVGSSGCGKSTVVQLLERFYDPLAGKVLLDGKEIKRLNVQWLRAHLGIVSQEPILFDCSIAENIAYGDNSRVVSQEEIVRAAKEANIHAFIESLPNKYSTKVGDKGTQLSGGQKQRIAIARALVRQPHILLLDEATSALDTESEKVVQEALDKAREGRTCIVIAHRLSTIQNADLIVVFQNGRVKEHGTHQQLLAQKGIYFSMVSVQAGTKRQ
row,Compound,pIC50
1,COc1ccc([C@@](C#N)(CCCN(C)CCc2ccc(OC)c(OC)c2)C(C)C)cc1O,5.80
2,COc1ccc(CCNCCCC(C#N)(c2ccc(OC)c(OC)c2)C(C)C)cc1OC (stereo unspecified) [NORVERAPAMIL],6.52

# Molecular target: T1, ATP-dependent translocase ABCB1
# Assay: TP_TRANSPORTER: transepithelial transport (basal to apical) in MDR1-expressing LLC-PK1 cells
# Type: functional, cell-based
# Details: pig
row,Compound,Activity
1,COc1ccc(CCN(C)CCCC(C#N)(c2ccc(OC)c(OC)c2)C(C)C)cc1OC (stereo unspecified) [VERAPAMIL],substrate [+]
2,CNCCCC(C#N)(c1ccc(OC)c(OC)c1)C(C)C (stereo unspecified),substrate [+]
3,COc1ccc([C@@](C#N)(CCCN)C(C)C)cc1OC,substrate [+]
4,COc1ccc(CCNCCCC(C#N)(c2ccc(OC)c(OC)c2)C(C)C)cc1OC (stereo unspecified) [NORVERAPAMIL],substrate [+]
